Data as given in the supplement of paper PMC10883282.

Legend:
Assay in all cases: relative viability vs DMSO control (72 h) (fraction); higher = more viable cells
RD = tested on: RD
In short: (§1)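 ATPLite readings, expressed as percent growth and averaged over up to triplicate wells, provided relative viability. Before reading, sarcoma cell lines seeded in 384-well plates to reach 80–90% confluence received 2.5 µl of serially diluted compound after 24 h, from source plates of 10 mM to 0.0002 mM. Plates were held 72 h at 37 °C, 5% CO2, with 0.1% DMSO as vehicle and a 5 µM positive control. The data were rescaled to 1 for full and 0 for none.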

KHOS-240S = tested on: KHOS-240S
In short: as §1

MES-SA = tested on: MES-SA
In short: as §1

SW1353 = tested on: SW1353
In short: as §1

SYO-1 = tested on: SYO-1
In short: as §1

O=C(Nc1nc2cccc(-c3ccc(CN4CCS(=O)(=O)CC4)cc3)n2n1)C1CC1 [Filgotinib]
relative viability
Details	KHOS-240S	MES-SA	RD	SW1353	SYO-1
0.00017 µM	1.04	0.977	1.02	1.06	0.992
0.00051 µM	1.08	0.964	1.04	1.09	0.995
0.00152 µM	1.06	0.943	1.04	1.05	0.957
0.00457 µM	1.08	0.965	1.1	1.01	0.97
0.01372 µM	1.07	0.949	1.07	1.04	0.907
0.04115 µM	1.07	0.953	1.1	1	0.903
0.1235 µM	1.03	0.957	1.07	0.981	0.872
0.3704 µM	1.06	0.935	1.1	1.02	0.843
1.111 µM	1.054	0.94	1.1	1	0.7846
3.333 µM	1.02	0.923	1.01	0.985	0.724
10 µM	0.932	0.736	0.846	0.968	0.551

CC1(C)CC=C(c2nc(C3CC(C)(C)OC(C)(C)C3)ccc2NC(=O)c2nc(C#N)c[nH]2)CC1 [Edicotinib]
relative viability
Details	KHOS-240S	MES-SA	RD	SW1353	SYO-1
0.00017 µM	1.03	0.945	1.123	0.973	0.931
0.00051 µM	1.01	0.962	1.09	0.987	0.925
0.00152 µM	1.02	0.935	1.12	0.958	0.919
0.00457 µM	1.05	0.939	1.07	0.9936	0.96
0.01372 µM	1.01	0.9423	1.07	0.9624	0.963
0.04115 µM	1.05	0.93	1.12	0.965	0.94
0.1235 µM	1.05	0.909	1.1	0.96	0.961
0.3704 µM	1.05	0.92	1.1	1.03	1.01
1.111 µM	1.118	0.868	1.07	1.09	1.03
3.333 µM	1.06	0.879	1.05	1.08	0.981
10 µM	0.841	0.887	1.06	1.098	1.04

Cc1ccc(Nc2nccc(N(C)c3ccc4c(C)n(C)nc4c3)n2)cc1S(N)(=O)=O [Pazopanib]
relative viability
Details	KHOS-240S	MES-SA	RD	SW1353	SYO-1
0.00017 µM	1.03	0.9224	1.11	0.962	0.919
0.00051 µM	1.04	0.925	1.12	0.952	0.901
0.00152 µM	1.05	0.931	1.12	0.94	0.882
0.00457 µM	1.04	0.934	1.11	0.977	0.862
0.01372 µM	1.03	0.933	1.11	0.96	0.823
0.04115 µM	1.02	0.928	1.12	0.947	0.777
0.1235 µM	0.975	0.922	1.12	0.946	0.685
0.3704 µM	0.974	0.95	1.13	0.939	0.576
1.111 µM	0.932	0.931	1.12	0.931	0.506
3.333 µM	0.88	0.824	1.16	0.89	0.471
10 µM	0.621	0.517	1.1	0.8	0.369

COc1cc(OC)c(/C=C/S(=O)(=O)Cc2ccc(OC)c(NCC(=O)O)c2)c(OC)c1 [Rigosertib]
relative viability
Details	KHOS-240S	MES-SA	RD	SW1353	SYO-1
0.00017 µM	1.06	0.901	1.08	1	0.957
0.00051 µM	1.07	0.906	1.09	1.01	0.982
0.00152 µM	1.051	0.911	1.08	0.994	0.96
0.00457 µM	1.05	0.91	1.094	0.989	0.961
0.01372 µM	1.03	0.918	1.05	0.992	0.942
0.04115 µM	0.981	0.932	1.04	0.968	0.966
0.1235 µM	0.385	0.607	0.825	0.932	0.941
0.3704 µM	0.228	0.271	0.372	0.702	0.896
1.111 µM	0.168	0.172	0.215	0.426	0.3561
3.333 µM	0.15	0.13	0.23	0.428	0.287
10 µM	0.135	0.13	0.256	0.429	0.305
